From patent publication US9974290B2, “Animal model and method for studying gene-gene interactions” (UNIVERSITY OF SOUTH FLORIDA, priority 2015, dated 2018)

System: Raji B cells
Experiment: Apoptosis assay in Raji B cells treated with PS-341
Assay type: cell-based
Settings: Raji B cells treated with PS-341 (FIG. 11B); effect can be rescued by LRBA knockdown
Protocol: FIGS. 2A, 2B, 2C-1, 2C-2, 2D, and 2E. LRBA interacts with NFkB and regulates cell survival. FIG. 2A: LRBA was stably knocked down in Raji cells by the short hairpin (sh) RNA technique in Raji B cells. NFkB activity was measured by an NFkB luciferase reporter. FIG. 2B: The phospho-NFkB (pS529) levels were detected by Phosflow Kit. FIGS. 2C-1 and 2C-2: TNFα (FIG. 2C-1) and IL10 (FIG. 2C-2) proteins levels were measured by the human Th1/Th2 cytokine bead-array kit. FIG. 2D: Apoptosis assay. Raji B cells were treated with various stress stimuli including proteasome inhibitors, serum starvation and bacterial infection. Apoptosis was detected by Annexin V-PE and 7-AAD. FIG. 2E: LRBA (−/−) ES cell clones were obtained by culturing LRBA (+/−) ES cells with 1 mg/ml G418 for ˜two weeks. Equal number of ES cells was plated into each well of a 96-well plate. The average cell numbers were counted from three wells at each time point.
FIGS. 11A-11E. LRBA interacts with important genes in regulating apoptosis and proliferation. […] FIG. 11A: NFkB activity was measured by an NFkB luciferase reporter. The Phosphorylated (P−) NFkB (pS529) levels were detected by Phosflow Kit. […] The average cell numbers were counted from three wells at each time point. […] Cell lysates from WT or LRBA KD stable Raji cells were analyzed by Western blot. Protein levels were quantified with Quantity One software. […]

In the case of `CC(C)C[C@H](NC(=O)[C@H](Cc1ccccc1)NC(=O)c1cnccn1)B(O)O` [PS-341], the apoptosis is reported as “promotes apoptosis”.
